# According to patent publication US8153581B2, “Process for producing an injectable medicament preparation” (KTB Tumorforschungs GmbH, priority 1999, dated 2012):
# Read-outs that look alike come from different tables or passages of the source.
# Tests used:
# albumin [1] = target: T1, albumin (Homo sapiens, UniProt P02768); settings: 37° C.
# Description: In this experiment, the plasma sample was separated, after the incubation had taken place, on a POROS®-20 anion exchange column (the proteins were detected at 254 nm while the anthracycline was detected by fluorescence).
# 1.4 mg of 2 (Mr 1374) are dissolved, at room temperature, in 1.0 ml of phosphate buffer (0.15 M NaCl, 0.004 M sodium phosphate, pH 6.5) (1000 μm solution).
# [2] = system: RENCA, renal cell carcinoma; experiment: RENCA (renal cell carcinoma) model, antitumour activity; format: in vivo, Balc/c mice
# Description: (§1) The biological data listed below clarify the in vivo activity of DOXO-HYD as compared with that of free doxorubicin: in what is termed the RENCA (renal cell carcinoma)-model, doxorubicin and DOXO-HYD were compared with each other, at approximately equitoxic doses, as regards their antitumour activity (intravenous therapy 10 days after injecting about 1 million kidney carcinoma cells into the left kidney).
# (§2) Animals: Balc/c mice, female; Tumour: RENCA, renal cell carcinoma
# (§3) Therapy: Intravenous (i.v.) on day (d) 10, 13, 17 and 20, end of experiment on d24
# [3] = RENCA model, body weight change; format: in vivo, Balc/c mice; settings: i.v. on d 10, 13, 17 and 20; approximately equitoxic doses
# Description: as §1, §2, §3
# albumin [4] = target: T1, albumin; experiment: Incubation with human plasma, gel filtration chromatography (Superdex 200); format: in vitro ADME; design: with 1.0 ml of human plasma; from tissue; host or cells: human blood plasma; settings: 250 μl of 100 μM solution with 1.0 ml human plasma, 5 minutes
# [5] = as compared with the control group and the doxorubicin-treated group, 4 × 20 mmol/kg i.v.
# T1 sequence (P02768 25-609): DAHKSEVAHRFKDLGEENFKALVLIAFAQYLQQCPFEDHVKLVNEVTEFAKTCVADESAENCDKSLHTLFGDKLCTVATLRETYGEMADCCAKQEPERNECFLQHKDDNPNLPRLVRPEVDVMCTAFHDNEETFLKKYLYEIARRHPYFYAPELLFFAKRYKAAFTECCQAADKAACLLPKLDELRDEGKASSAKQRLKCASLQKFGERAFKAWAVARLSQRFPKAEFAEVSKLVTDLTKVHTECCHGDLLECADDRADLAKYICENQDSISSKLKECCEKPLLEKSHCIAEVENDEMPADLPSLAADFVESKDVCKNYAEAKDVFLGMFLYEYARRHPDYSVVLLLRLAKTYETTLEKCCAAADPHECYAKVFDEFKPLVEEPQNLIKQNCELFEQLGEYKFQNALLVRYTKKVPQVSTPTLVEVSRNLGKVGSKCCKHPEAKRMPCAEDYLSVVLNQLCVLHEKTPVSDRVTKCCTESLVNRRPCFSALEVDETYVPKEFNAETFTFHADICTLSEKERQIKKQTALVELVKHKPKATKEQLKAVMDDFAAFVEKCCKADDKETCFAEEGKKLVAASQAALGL
structure (smiles),measurement,setting,value
"COc1cccc2c1C(=O)c1c(O)c3c(c(O)c1C2=O)C[C@@](O)(C(CO)=NNC(=O)CCCCCN1C(=O)C=CC1=O)C[C@@H]3O[C@H]1C[C@H](N)[C@H](O)[C@H](C)O1 [DOXO-EMCH, 6-maleimidocaproic acid hydrazone derivative of doxorubicin]",binding to albumin in human plasma,"albumin [1]; 250μ of 2000 μM solution with 1.0 ml human plasma, 30 seconds",majority of the DOXO-EMCH is bound to albumin
COc1cccc2c1C(=O)c1c(O)c3c(c(O)c1C2=O)C[C@@](O)(/C(CO)=N/NC(=O)Cc1ccc(N2C(=O)C=CC2=O)cc1)C[C@@H]3OC1CC(C)C(O)C(N)C1.Cl (some centres unmarked) [DOXO-HYD],antitumour activity,"[2]; RENCA model, i.v. d 10, 13, 17, 20, 4 × 20 mmol/kg, end d24",very good antitumour activity
same,kidney tumour volume,[2]; [5],marked reduction
same,number of lung metastases,[2]; [5],marked reduction
same,Average decrease in body weight (%) d 1-24,[3],−15%
same,covalent binding to albumin in human blood plasma,"albumin [1]; human blood plasma, 5 minutes of incubation",most of the DOXO-HYD is covalently bonded to the albumin
"COc1cccc2c1C(=O)c1c(O)c3c(c(O)c1C2=O)C[C@@](O)(C(=O)CO)C[C@@H]3O[C@H]1C[C@H](N)[C@H](O)[C@H](C)O1 [Doxorubicin, doxorubicin, reference compound]",Average decrease in body weight (%) d 1-24,[3],−15%
O=C(O)c1cc(N2C(=O)C=CC2=O)ccc1-c1c2ccc(=O)cc-2oc2cc(O)ccc12 [fluoresceinmaleimide],binding to albumin in human plasma,albumin [4],majority of the fluoresceinmaleimide is bound to albumin
